Measured values as given in the supplement of paper PMC10307832.

How the values were obtained:
Test in all cases: relative viability (nuclei count vs DMSO), 5 days (fraction); higher = more cells survive
[1] = compound: CC(C)C[C@H](NC(=O)[C@H](Cc1ccccc1)NC(=O)c1cnccn1)B(O)O [Bortezomib] + CS(=O)(=O)N1CCN(Cc2cc3nc(-c4cccc5[nH]ncc45)nc(N4CCOCC4)c3s2)CC1 [Pictilisib] (partner 1 µM)
Summary of the method: (§1)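 One day after seeding in 1536-well plates, lung cancer cell lines were dosed by pin tool. Dosing was either single-drug or a fixed anchor-drug dose plus five library-drug doses (not always all listed) in √10 steps. After 5 days, nuclei were stained in one fix-and-stain step and counted on 4× images, and relative viability is the nuclei count of treated wells over that of vehicle wells, given as the median of duplicate plates.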

[2] = compound: CC1=CC(=NN1)NC2=CC(=NC(=N2)/C=C/C3=CC=CC=C3)N4CCN(CC4)C + CC(C)C[C@H](NC(=O)[C@H](Cc1ccccc1)NC(=O)c1cnccn1)B(O)O [Bortezomib] (partner 0.002 µM)
Summary of the method: as §1

[3] = compound: CC1=CC(=NN1)NC2=CC(=NC(=N2)/C=C/C3=CC=CC=C3)N4CCN(CC4)C + Nc1nc2[nH]cc(CCc3ccc(C(=O)N[C@@H](CCC(=O)O)C(=O)O)cc3)c2c(=O)[nH]1 [Pemetrexed] (partner 0.2 µM)
Summary of the method: as §1

[4] = compound: CC(C)C[C@H](NC(=O)[C@H](Cc1ccccc1)NC(=O)c1cnccn1)B(O)O [Bortezomib] + NC(=O)Nc1cc(-c2cccc(F)c2)sc1C(=O)N[C@H]1CCCNC1 [AZD7762] (partner 0.2 µM)
Summary of the method: as §1

Cell Line	relative viability ([1]; first compound 0.0002 µM)	relative viability ([1]; first compound 0.000632 µM)	relative viability ([1]; first compound 0.002 µM)	relative viability ([1]; first compound 0.006325 µM)	relative viability ([1]; first compound 0.02 µM)	relative viability ([2]; first compound 0.08 µM)	relative viability ([2]; first compound 0.253 µM)	relative viability ([2]; first compound 0.8 µM)	relative viability ([2]; first compound 2.53 µM)	relative viability ([2]; first compound 8 µM)	relative viability ([3]; first compound 0.08 µM)	relative viability ([3]; first compound 0.253 µM)	relative viability ([3]; first compound 0.8 µM)	relative viability ([3]; first compound 2.53 µM)	relative viability ([3]; first compound 8 µM)	relative viability ([4]; first compound 0.0002 µM)	relative viability ([4]; first compound 0.000632 µM)	relative viability ([4]; first compound 0.002 µM)	relative viability ([4]; first compound 0.006325 µM)	relative viability ([4]; first compound 0.02 µM)
SW 1573	0.516	0.496	0.399	0.0724	0.0556	1.13	1.02	1.02	0.348	0.1	0.802	0.852	0.735	0.126	0.0679					
NCI-H661	0.355	0.328	0.435	0.335	0.225	0.741	0.906	0.839	0.669	0.203	0.884	0.898	0.855	0.576	0.326					
UMC-11	0.703	0.751	0.741	0.393	0.138	0.718	0.726	0.636	0.12	0.08	0.74	0.705	0.481	0.148	0.122					
NCI-H520	0.269	0.283	0.229	0.184	0.184	0.487	0.599	0.395	0.154	0.11	0.643	0.688	0.322	0.14	0.0969					
NCI-H2170	0.29	0.238	0.329	0.294	0.202						0.266	0.246	0.248	0.193	0.181	0.804	0.685	0.943	0.54	0.113
COR-L 105	0.377	0.324	0.389	0.322	0.326	0.744	0.988	0.76	0.263	0.231	1.23	1.13	0.945	0.351	0.29					
NCI-H1703	0.259	0.208	0.146	0.128	0.121	0.261	0.319	0.236	0.174	0.117						0.117	0.102	0.133	0.178	0.137
NCI-H1650	0.24	0.488	0.17	0.153	0.15	0.209	0.191	0.182	0.183	0.19	0.37	0.373	0.379	0.268	0.146					
NCI-H2009	0.602	0.675	0.797	0.0767	0.06	1.04	0.54	1.11	0.423	0.15	1.09	1.03	0.982	0.909	0.313					
COR-L23	0.922	0.777	0.609	0.0347	0.0399	0.972	1.29	1	0.196	0.0895	0.202	0.203	0.179	0.166	0.105					
NCI-H522											0.992	0.848	0.957	0.894	0.622	0.794	0.719	0.715	0.384	0.356
NCI-H1563	0.68	0.622	0.655	0.538	0.486	0.943	0.874	0.863	0.714	0.428	0.76	0.861	0.853	0.592	0.396					
NCI-H1944	0.34	0.314	0.349	0.319	0.276						0.566	0.652	0.611	0.365	0.312	0.508	0.511	0.637	0.295	0.166
SK-MES-1	0.337	0.303	0.347	0.148	0.143						0.908	0.995	0.89	0.213	0.162					
SK-LU-1	0.521	0.528	0.503	0.166	0.14	1.1	1.28	1.01	0.429	0.195	1	0.943	0.933	0.372	0.127					
NCI-H2228	0.373	0.418	0.355	0.109	0.115	0.96	0.917	0.74	0.0986	0.0661	0.306	0.309	0.276	0.0818	0.055					
NCI-H2342											0.642	0.81	0.819	0.769	0.473	0.64	0.486	0.478	0.582	0.433
IA-LM	0.299	0.321	0.278	0.0319	0.0054	0.74	0.897	1.14	0.463	0.121										
NCI-H1793	0.282	0.305	0.297	0.269	0.18						0.698	1.03	0.644	0.137	0.0795	0.512		0.394	0.803	0.0834
EBC-1	0.415	0.408	0.177	0.0912	0.0987	0.523	0.557	0.427	0.264	0.158										
NCI-H1648											0.689	0.803	0.836	0.745	0.47	0.549	0.634	0.771	0.518	0.269
LK-2		0.559	0.295	0.251	0.245						0.199	0.288	0.306	0.217	0.0825	0.335	0.387	0.533	0.449	0.0966
NCI-H1299	0.722	0.776	0.511	0.0727	0.0315	1	1.05	1	0.854	0.211										
